Assay results as given in patent US10544147B2, “Purine inhibitors of human phosphatidylinositol 3-kinase delta” (MERCK SHARP & DOHME CORP., priority 2016, dated 2020).
pIC50: −log10 of the molar value.

target: PI3Kdelta (Homo sapiens (Human), UniProt O00329); assay: HTRF PI3K biochemical assay, delta isoform; settings: 0.3 nM enzyme, 100 uM ATP, 50 uM PIP2; form screened (neutral or TFA salt)
Method: (§1) HTRF PI3K Biochemical Assay to Measure Intrinsic Potency of Compound Inhibitors
(§2) This loss of signal is nonlinear with respect to both increasing product and time. This non-linear detection will impact accuracy of IC50 calculations; therefore, there is a need for a correction factor to obtain more accurate IC50 values. This correction is derived from a PIP3 standard curve run in a separate assay plate. All data were calculated using the ratio of acceptor (APC) to donor (Europium) fluorescence in each well of the assay plate. […] An IC50 was then calculated fitting the % inhibition data to the equation: % inhibition=min+(Max−min)/1+([inhibitor]/IC50)^n) where min is the % inhibition with inhibitor, max is the signal in DMSO control, and n is the Hill slope.
(§3) The biological data was collected using the methodology described above.

Chain of PI3Kdelta (O00329 whole entry, canonical isoform): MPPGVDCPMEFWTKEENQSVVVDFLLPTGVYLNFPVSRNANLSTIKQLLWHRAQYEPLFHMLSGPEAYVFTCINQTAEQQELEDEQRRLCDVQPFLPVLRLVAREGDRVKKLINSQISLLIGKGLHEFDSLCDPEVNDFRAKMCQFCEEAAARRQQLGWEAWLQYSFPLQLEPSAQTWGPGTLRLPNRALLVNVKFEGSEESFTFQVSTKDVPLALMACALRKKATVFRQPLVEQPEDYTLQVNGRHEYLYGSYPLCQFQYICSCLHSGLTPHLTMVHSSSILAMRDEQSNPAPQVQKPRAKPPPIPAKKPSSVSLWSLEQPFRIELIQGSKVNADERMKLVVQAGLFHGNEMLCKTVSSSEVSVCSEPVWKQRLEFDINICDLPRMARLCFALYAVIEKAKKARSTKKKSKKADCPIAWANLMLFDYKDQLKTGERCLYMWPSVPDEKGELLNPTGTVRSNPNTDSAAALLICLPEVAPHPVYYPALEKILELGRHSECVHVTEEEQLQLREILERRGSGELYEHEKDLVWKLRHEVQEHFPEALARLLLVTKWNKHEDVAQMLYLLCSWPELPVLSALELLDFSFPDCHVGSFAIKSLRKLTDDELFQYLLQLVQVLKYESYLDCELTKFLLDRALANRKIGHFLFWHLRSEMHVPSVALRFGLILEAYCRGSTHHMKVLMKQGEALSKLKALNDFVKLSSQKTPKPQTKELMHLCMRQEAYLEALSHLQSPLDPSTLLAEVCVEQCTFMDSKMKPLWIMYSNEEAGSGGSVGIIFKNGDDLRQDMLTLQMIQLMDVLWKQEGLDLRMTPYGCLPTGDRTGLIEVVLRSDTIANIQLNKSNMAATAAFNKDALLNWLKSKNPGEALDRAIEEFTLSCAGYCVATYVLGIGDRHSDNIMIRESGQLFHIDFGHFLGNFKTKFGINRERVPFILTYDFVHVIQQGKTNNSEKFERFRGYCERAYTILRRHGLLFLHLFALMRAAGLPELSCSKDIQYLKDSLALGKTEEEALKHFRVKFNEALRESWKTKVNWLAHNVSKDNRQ
Chain of PI3Kdelta (P27986 whole entry partner, canonical isoform): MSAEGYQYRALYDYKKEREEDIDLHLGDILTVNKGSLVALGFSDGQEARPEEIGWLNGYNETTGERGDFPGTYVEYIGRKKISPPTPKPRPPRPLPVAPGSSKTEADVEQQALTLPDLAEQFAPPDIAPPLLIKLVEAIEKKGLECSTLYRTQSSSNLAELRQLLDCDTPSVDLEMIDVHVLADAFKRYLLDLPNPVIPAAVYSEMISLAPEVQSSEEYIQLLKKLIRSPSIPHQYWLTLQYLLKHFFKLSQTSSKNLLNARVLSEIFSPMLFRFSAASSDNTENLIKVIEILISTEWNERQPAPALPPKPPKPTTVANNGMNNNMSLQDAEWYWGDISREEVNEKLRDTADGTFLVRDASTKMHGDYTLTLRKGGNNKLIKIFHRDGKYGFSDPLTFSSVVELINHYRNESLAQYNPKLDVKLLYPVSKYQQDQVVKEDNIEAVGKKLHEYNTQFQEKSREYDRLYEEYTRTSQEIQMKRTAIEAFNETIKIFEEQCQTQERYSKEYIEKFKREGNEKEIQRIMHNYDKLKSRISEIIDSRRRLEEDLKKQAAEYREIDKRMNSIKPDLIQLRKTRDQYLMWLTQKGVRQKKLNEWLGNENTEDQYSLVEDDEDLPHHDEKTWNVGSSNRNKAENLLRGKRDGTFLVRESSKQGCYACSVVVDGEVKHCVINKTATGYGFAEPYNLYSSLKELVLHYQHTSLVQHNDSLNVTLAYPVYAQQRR

| Structure (SMILES) | pIC50 |
| --- | --- |
| CCn1c(-c2cnc(C)nc2)nc2c(-c3ccc4c(c3)C(C)(Nc3ccncc3)C(=O)N4)ncnc21 (racemic) [Compound 2-9, (R and S)-5-[9-ethyl-8-(2-methylpyrimidin-5-yl)-9H-purin-6-yl]-3-methyl-3-(pyridin-4-ylamino)-1,3-dihydro-2H-indol-2-one] | 6.84 |
| CCn1c(-c2cnc(C)nc2)nc2c(-c3ccc4c(c3)C(C)(N3CCC5OCCC53)C(=O)N4)ncnc21 (racemic) [Compound 2-10, (R and S)-5-[9-ethyl-8-(2-methylpyrimidin-5-yl)-9H-purin-6-yl]-3-(hexahydro-4H-furo[3,2-b]pyrrol-4-yl)-3-methyl-1,3-dihydro-2H-indol-2-one] | 7.85 |
| CCn1c(-c2cnc(C)nc2)nc2c(-c3ccc4c(c3)C(C)(N[C@H](C)C3CC3)C(=O)N4)ncnc21 (mixture of isomers) [Compound 2-11, 3-{[(1R)-1-cyclopropylethyl]amino}-5-[9-ethyl-8-(2-methylpyrimidin-5-yl)-9H-purin-6-yl]-3(R and S)-methyl-1,3-dihydro-2H-indol-2-one] | 7.82 |
| CCn1c(-c2cnc(C)nc2)nc2c(-c3ccc4c(c3)C(C)(N(C)CCOC)C(=O)N4)ncnc21 (racemic) [Compound 2-14, (R and S)-5-[9-ethyl-8-(2-methylpyrimidin-5-yl)-9H-purin-6-yl]-3-[(2-methoxyethyl)(methyl)amino]-3-methyl-1,3-dihydro-2H-indol-2-one] | 7.34 |

target: PI3Kalpha (Homo sapiens (Human), UniProt P42336); assay: HTRF PI3K biochemical assay, alpha isoform (selectivity versus delta); settings: ratio PI3K-alpha IC50 value/PI3K-delta IC50 value
Method: as §1, §2, §3
The determination of relative selectivity for a given compound is defined as the relative ratio of the (PI3K-alphaIC50 value/PI3K-delta IC50 value).

Chain of PI3Kalpha (P42336 whole entry, canonical isoform): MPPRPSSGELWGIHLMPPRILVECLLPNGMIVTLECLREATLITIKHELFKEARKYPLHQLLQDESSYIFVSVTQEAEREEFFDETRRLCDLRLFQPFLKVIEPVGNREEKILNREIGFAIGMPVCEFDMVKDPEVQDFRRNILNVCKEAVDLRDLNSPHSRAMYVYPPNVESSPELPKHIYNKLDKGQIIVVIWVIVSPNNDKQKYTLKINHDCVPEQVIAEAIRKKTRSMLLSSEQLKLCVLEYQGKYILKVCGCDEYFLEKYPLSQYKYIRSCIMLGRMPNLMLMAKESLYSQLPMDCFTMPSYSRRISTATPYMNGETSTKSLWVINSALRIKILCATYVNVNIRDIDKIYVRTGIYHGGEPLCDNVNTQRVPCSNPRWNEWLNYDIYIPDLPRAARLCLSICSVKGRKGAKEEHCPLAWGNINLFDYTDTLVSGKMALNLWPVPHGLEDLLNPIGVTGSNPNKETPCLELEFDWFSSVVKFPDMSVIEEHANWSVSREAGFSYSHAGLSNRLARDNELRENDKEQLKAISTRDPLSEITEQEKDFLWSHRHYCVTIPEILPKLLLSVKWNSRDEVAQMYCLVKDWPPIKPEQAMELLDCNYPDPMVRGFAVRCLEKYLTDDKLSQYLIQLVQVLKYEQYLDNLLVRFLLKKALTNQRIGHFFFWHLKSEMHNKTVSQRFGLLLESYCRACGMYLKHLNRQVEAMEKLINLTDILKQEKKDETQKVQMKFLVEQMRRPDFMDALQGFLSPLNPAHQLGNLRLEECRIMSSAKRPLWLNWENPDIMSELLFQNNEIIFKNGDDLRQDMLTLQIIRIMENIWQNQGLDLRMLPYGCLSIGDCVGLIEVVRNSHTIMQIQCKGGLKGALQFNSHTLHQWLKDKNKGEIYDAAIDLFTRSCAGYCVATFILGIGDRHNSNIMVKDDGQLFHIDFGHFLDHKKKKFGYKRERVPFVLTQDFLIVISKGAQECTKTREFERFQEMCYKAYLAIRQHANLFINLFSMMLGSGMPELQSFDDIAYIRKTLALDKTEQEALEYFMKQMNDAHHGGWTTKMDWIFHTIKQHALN
Chain of PI3Kalpha (P27986 whole entry partner, canonical isoform): as the sequence (P27986 whole entry partner, canonical isoform) above

| Structure (SMILES) | Relative Selectivity versus PI3Kalpha |
| --- | --- |
| CCn1c(-c2cnc(C)nc2)nc2c(-c3ccc4c(c3)C(C)(Cc3cncnc3)C(=O)N4)ncnc21 (racemic) [Compound 1-33, 5-(9-ethyl-8-(2-methylpyrimidin-5-yl)-9H-purin-6-yl)-3-methyl-3-(pyrimidin-5-ylmethyl)indolin-2-one] | >10 |
| CCn1c(-c2cnc(C)nc2)nc2c(-c3ccc4c(c3)C(C)(Nc3ccncc3)C(=O)N4)ncnc21 (racemic) [Compound 2-9, (R and S)-5-[9-ethyl-8-(2-methylpyrimidin-5-yl)-9H-purin-6-yl]-3-methyl-3-(pyridin-4-ylamino)-1,3-dihydro-2H-indol-2-one] | >10 |
| CCn1c(-c2cnc(C)nc2)nc2c(-c3ccc4c(c3)C(C)(N3CCC5OCCC53)C(=O)N4)ncnc21 (racemic) [Compound 2-10, (R and S)-5-[9-ethyl-8-(2-methylpyrimidin-5-yl)-9H-purin-6-yl]-3-(hexahydro-4H-furo[3,2-b]pyrrol-4-yl)-3-methyl-1,3-dihydro-2H-indol-2-one] | >10 |
| CCn1c(-c2cnc(C)nc2)nc2c(-c3ccc4c(c3)C(C)(N[C@H](C)C3CC3)C(=O)N4)ncnc21 (mixture of isomers) [Compound 2-11, 3-{[(1R)-1-cyclopropylethyl]amino}-5-[9-ethyl-8-(2-methylpyrimidin-5-yl)-9H-purin-6-yl]-3(R and S)-methyl-1,3-dihydro-2H-indol-2-one] | >10 |
| CCn1c(-c2cnc(C)nc2)nc2c(-c3ccc4c(c3)C(C)(N(C)CCOC)C(=O)N4)ncnc21 (racemic) [Compound 2-14, (R and S)-5-[9-ethyl-8-(2-methylpyrimidin-5-yl)-9H-purin-6-yl]-3-[(2-methoxyethyl)(methyl)amino]-3-methyl-1,3-dihydro-2H-indol-2-one] | >10 |
| CCn1c(-c2cnc(C)nc2)nc2c(-c3ccc4c(c3)C(C)(OC(C)C)C(=O)N4)ncnc21 (racemic) [Compound 2-73, 5-(9-ethyl-8-(2-methylpyrimidin-5-yl)-9H-purin-6-yl)-3-isopropoxy-3-methylindolin-2-one] | >10 |
| CCn1c(-c2cnc(C)nc2)nc2c(-c3ccc4c(c3)C(C)(OC3CCC3)C(=O)N4)ncnc21 (racemic) [Compound 2-74, 3-cyclobutoxy-5-(9-ethyl-8-(2-methylpyrimidin-5-yl)-9H-purin-6-yl)-3-methylindolin-2-one] | >10 |
| Cc1ncc(-c2nc3c(-c4ccc5c(c4)C(C)(OCC4CC4)C(=O)N5)ncnc3n2C)cn1 (racemic) [Compound 2-75, 3-(cyclopropylmethoxy)-3-methyl-5-(9-methyl-8-(2-methylpyrimidin-5-yl)-9H-purin-6-yl)indolin-2-one] | >10 |
| CCn1c(-c2cnc(C)nc2)nc2c(-c3ccc4c(c3)C(C#N)(CC(C)C)C(=O)N4)ncnc21 (stereo not shown) [Compound 1-11, 5-(9-Ethyl-8-(2-methylpyrimidin-5-yl)-9H-purin-6-yl)-3-isobutyl-2-oxoindoline-3-carbonitrile] | >10 |
| CCn1c(-c2cnc(C)nc2)nc2c(-c3ccc4c(c3)C(C)(Cc3ccccc3)CN4)ncnc21 (stereo not shown) [Compound 1-18, 6-(3-Benzyl-3-methylindolin-5-yl)-9-ethyl-8-(2-methylpyrimidin-5-yl)-9H-purine] | >10 |
| CCn1c(-c2cnc(C)nc2)nc2c(-c3ccc4c(c3)C(C)(Cc3ccccc3)CN4C(C)=O)ncnc21 (stereo not shown) [Compound 1-19, 1-(3-Benzyl-5-(9-ethyl-8-(2-methylpyrimidin-5-yl)-9H-purin-6-yl)-3-methylindolin-1-yl)ethan-1-one] | >10 |
| CCn1c(-c2cnc(C)nc2)nc2c(-c3ccc4c(c3)C(C)(Cc3ccccc3)CN4C)ncnc21 (stereo not shown) [Compound 1-22, 6-(3-Benzyl-1,3-dimethylindolin-5-yl)-9-ethyl-8-(2-methylpyrimidin-5-yl)-9H-purine] | >10 |
| CCn1c(-c2cnc(C)nc2)nc2c(-c3ccc4c(c3)C(C#N)(N3CC(C)(OC)C3)C(=O)N4)ncnc21 (stereo not shown) [Compound 2-77, 5-(9-ethyl-8-(2-methylpyrimidin-5-yl)-9H-purin-6-yl)-3-(3-methoxy-3-methylazetidin-1-yl)-2-oxoindoline-3-carbonitrile] | >10 |

More lines, now with the values ahead:

| Relative Selectivity versus PI3Kalpha | Structure (SMILES) |
| --- | --- |
| >10 | Cc1ncc(-c2nc3c(-c4ccc5c(c4)C4(CCN(C(=O)C6CC6)CC4)C(=O)N5)ncnc3n2C)cn1 [Compound 3-25, 1′-(cyclopropanecarbonyl)-5-(9-methyl-8-(2-methylpyrimidin-5-yl)-9H-purin-6-yl)spiro[indoline-3,4′-piperidin]-2-one] |
| >10 | CCn1c(-c2cnc(C)nc2)nc2c(-c3ccc4c(c3)C3(CCCC3)C(=O)N4)ncnc21 [Compound 3-34, 5′-(9-ethyl-8-(2-methylpyrimidin-5-yl)-9H-purin-6-yl)spiro[cyclopentane-1,3′-indolin]-2′-one] |
| 9 | CCn1c(-c2cnc(C)nc2)nc2c(-c3ccc4c(c3)CNS4(=O)=O)ncnc21 [Compound 4-13, 5-(9-ethyl-8-(2-methylpyrimidin-5-yl)-9H-purin-6-yl)-2,3-dihydrobenzo[d]isothiazole 1,1-dioxide] |
| >10 | CCn1c(-c2cnc(C)nc2)nc2c(-c3ccc4c(c3)CN(C)S4(=O)=O)ncnc21 [Compound 4-14, 5-(9-ethyl-8-(2-methylpyrimidin-5-yl)-9H-purin-6-yl)-2-methyl-2,3-dihydrobenzo[d]isothiazole 1,1-dioxide] |
| 7 | CCn1c(-c2cnc(C)nc2)nc2c(-c3ccc4c(c3)CNC4=O)ncnc21 [Compound 4-15, 5-(9-ethyl-8-(2-methylpyrimidin-5-yl)-9H-purin-6-yl)isoindolin-1-one] |
| >10 | CCn1c(-c2cnc(C)nc2)nc2c(-c3ccc4c(c3)C(C)(c3ccccc3)OC(=O)N4)ncnc21 (stereo not shown) [Compound 4-16, 6-(9-ethyl-8-(2-methylpyrimidin-5-yl)-9H-purin-6-yl)-4-methyl-4-phenyl-1,4-dihydro-2H-benzo[d][1,3]oxazin-2-one] |
| >10 | CCn1c(-c2cnc(C)nc2)nc2c(-c3ccc4oc(=O)n(Cc5ccccc5)c4c3)ncnc21 [Compound 5-3, 3-benzyl-5-[9-ethyl-8-(2-methylpyrimidin-5-yl)-9H-purin-6-yl]-1,3-benzoxazol-2(3H)-one] |
| >10 | CCn1c(-c2cnc(C)nc2)nc2c(-c3ccc4oc(=O)n(CC5CCOCC5)c4c3)ncnc21 [Compound 5-4, 5-[9-ethyl-8-(2-methylpyrimidin-5-yl)-9H-purin-6-yl]-3-(tetrahydro-2H-pyran-4-ylmethyl)-1,3-benzoxazol-2(3H)-one] |
